Data: patent publication US6380201B1, “Methods of treating or ameliorating the symptoms of common cold or allergic rhinitis with serotonin 5-HT1F agonists” (Eli Lilly and Company, priority 1997, dated 2002)
Where a name gives a salt, the structure may show the parent alone.

Test system: not given
Conditions: not given

melting point	SMILES
210 to 211 °C	Cl.O=C(Nc1ccc2[nH]c3c(c2c1)CC(NCCc1ccc(F)cc1)CC3)c1ccc(F)cc1 (stereo not shown)
90 °C	CN1CCC(c2c[nH]c3ccc(C(=O)c4ccccn4)cc23)CC1
87 to 90 °C	CCCN1CCC(c2c[nH]c3ccc(NS(C)(=O)=O)cc23)CC1
202 to 204 °C	CCCCN1CC=C(c2c[nH]c3ccc(NS(C)(=O)=O)cc23)CC1
88 to 92 °C (dec.)	CCC(=O)Nc1ccc2[nH]cc(C3CCN(C)CC3)c2c1.O=C(O)/C=C/C(=O)O
181 to 182 °C	CC(=O)c1ccc2[nH]c3c(c2c1)CC(N(C)C)CC3 (stereo not shown)
252 °C	CN(C)[C@@H]1CCc2c([nH]c3ccc(Br)cc23)C1.I
207 to 208 °C	CN1CC=C(c2c[nH]c3ccc(NS(=O)(=O)N(C)C)cc23)CC1
252 to 255 °C	Cl.NC1CCc2[nH]c3ccc(NC(=O)c4ccc(F)cc4)cc3c2C1 (stereo not shown)
224 °C	CN1CCC(c2c[nH]c3ccc(N4C(=O)c5ccccc5C4=O)cc23)CC1.O=C(O)C(=O)O
172 to 175 °C	CN1CCC(c2c[nH]c3ccc(C(=O)c4ccc(OC(F)(F)F)cc4)cc23)CC1
138 to 141 °C	CN1CCC(c2c[nH]c3ccc(SCc4ccccc4)cc23)CC1
> 250 °C	CN1CCC(c2c[nH]c3ccc(NS(=O)(=O)c4ccc(I)cc4)cc23)CC1
124 to 128 °C	Cc1[nH]c2ccc(NS(C)(=O)=O)cc2c1C1CCN(C)CC1
161 to 165 °C (dec.)	CC(=O)Nc1ccc2[nH]cc(C3CCN(C)CC3)c2c1
246 to 249 °C (dec.)	CN1CCC(c2c[nH]c3ccc(NS(=O)(=O)c4ccccc4)cc23)CC1
210 to 214 °C	CN1CC=C(c2c[nH]c3ccc(NS(C)(=O)=O)cc23)CC1
185 °C (dec.)	CN1CCC(c2c[nH]c3ccc(NC(=O)c4cccc(Cl)c4)cc23)CC1.O=C(O)/C=C/C(=O)O
114 °C (dec.)	CN1CCC(c2c[nH]c3ccc(NC(=O)c4ccco4)cc23)CC1.O=C(O)/C=C/C(=O)O
238 to 240 °C	Cl.Clc1ccc(CCNC2CCc3[nH]c4ccc(OCc5ccccc5)cc4c3C2)cc1 (stereo not shown)
176 to 184 °C	Cc1[nH]c2ccc(NS(C)(=O)=O)cc2c1C1=CCN(C)CC1

melting point	SMILES
178 to 180 °C	Cl.Oc1ccc2[nH]c3c(c2c1)CC(NCCc1ccccc1)CC3 (stereo not shown)
152 °C (dec.)	COc1cccc(C(=O)Nc2ccc3[nH]cc(C4CCN(C)CC4)c3c2)c1.O=C(O)/C=C/C(=O)O
83 °C	CN1CCC(c2c[nH]c3ccc(Sc4ccccn4)cc23)CC1
190 °C (dec.)	CN1CC=C(c2c[nH]c3ccc(NC(=O)c4ccco4)cc23)CC1
224 to 226 °C	Br.CN(C)C1CCc2[nH]c3ccc(NC(=O)C4CCCCC4)cc3c2C1 (stereo not shown)
101 °C	CN1CCC(c2c[nH]c3ccc(C(=O)c4ccccc4)cc23)CC1
153 to 155.5 °C	CN1CCC(c2c[nH]c3ccc(NC(=O)c4ccc5ccccc5c4)cc23)CC1
229 to 230 °C	O=C(Nc1ccc2[nH]cc(C3CCNCC3)c2c1)c1ccc(F)cc1
241 °C (dec.)	O=C(Nc1ccc2[nH]cc(C3=CCNCC3)c2c1)c1ccc(F)cc1
215 to 220 °C	CN1CCC(c2c[nH]c3ccc(NC(=O)Nc4ccccc4)cc23)CC1.Cl
207 to 208 °C	Cl.O=C(Nc1ccc2[nH]c3c(c2c1)CC(NCCc1ccccc1)CC3)c1ccc(F)cc1 (stereo not shown)
198 to 202 °C	CN1CC=C(c2cn(C)c3ccc(NS(C)(=O)=O)cc23)CC1
286 °C (dec.)	Cl.Cn1cc(CCNC2CCc3[nH]c4ccc(O)cc4c3C2)cn1 (stereo not shown)
193 to 203 °C	CN1CCC(c2c[nH]c3ccc(NC(=O)c4cccc5ccccc45)cc23)CC1.Cl
130 °C	CN1CCC(c2c[nH]c3ccc(NC(=O)c4ccccc4)cc23)CC1.O=C(O)C(=O)O
160 to 162 °C	CN1CCC(c2c[nH]c3ccc(C(=O)c4ccc(C(F)(F)F)cc4)cc23)CC1
218 to 219 °C (dec.)	CCN1CC=C(c2c[nH]c3ccc(NS(C)(=O)=O)cc23)CC1
251 to 253 °C	CC(C)n1cc(CCNC2CCc3[nH]c4ccc(O)cc4c3C2)cn1.Cl (stereo not shown)
151 °C (dec.)	COc1ccc(C(=O)Nc2ccc3[nH]cc(C4CCN(C)CC4)c3c2)cc1.O=C(O)/C=C/C(=O)O
242 to 245 °C	CCCCC(=O)c1ccc2[nH]cc(C3CCN(C)CC3)c2c1.Cl
> 250 °C	CN1CC=C(c2c[nH]c3ccc(NC(=O)c4ccccc4)cc23)CC1

melting point	SMILES
148 to 150 °C	CN1CCC(c2c[nH]c3ccc(Sc4ccc(Cl)cc4)cc23)CC1
176 to 178 °C	CCS(=O)(=O)Nc1ccc2[nH]cc(C3CCN(C)CC3)c2c1
160 °C (dec.)	Cl.Oc1ccc2[nH]c3c(c2c1)CC(NCCc1ccc(F)cc1)CC3 (stereo not shown)
236 to 238 °C	Br.C=C(C)C(=O)Nc1ccc2[nH]c3c(c2c1)CC(N(C)C)CC3 (stereo not shown)
147 to 150 °C	CN1CCC(c2c[nH]c3ccc(Sc4ccccc4)cc23)CC1
186 to 189 °C	CC(=O)Nc1ccc2[nH]cc(C3=CCN(C)CC3)c2c1
78 °C	CCCCN1CCC(c2c[nH]c3ccc(NS(C)(=O)=O)cc23)CC1
127 to 135 °C (dec.)	CCN1CC=C(c2c[nH]c3ccc(NC(=O)c4ccc(F)cc4)cc23)CC1
170 to 173 °C	CCC(=O)Nc1ccc2[nH]cc(C3=CCN(C)CC3)c2c1.O=C(O)/C=C/C(=O)O
212 to 222 °C	CN1CC=C(c2c[nH]c3ccc(NC(=O)c4ccc(F)cc4Cl)cc23)CC1
224 to 226 °C	CN1CC=C(c2c[nH]c3ccc(NC(=O)c4ccc(Cl)cc4)cc23)CC1
89 °C	CN1CCC(c2c[nH]c3ccc(C(=O)c4ccc(F)cc4)cc23)CC1
92 °C	CN1CCC(c2c[nH]c3ccc(C(=O)c4ccc5ccccc5c4)cc23)CC1
< 90 °C	CN1CCC(c2c[nH]c3ccc(NC(=O)Cc4ccccc4)cc23)CC1.O=C(O)C(=O)O
224 to 226 °C	CCS(=O)(=O)Nc1ccc2[nH]cc(C3=CCN(C)CC3)c2c1
152 to 155 °C	CCN1CCC(c2c[nH]c3ccc(NC(=O)c4ccc(F)cc4)cc23)CC1.O=C(O)/C=C/C(=O)O
175 to 185 °C (dec.)	CN1CCC(c2c[nH]c3ccc(N(S(=O)(=O)C(F)(F)F)S(=O)(=O)C(F)(F)F)cc23)CC1.Cl
217 to 218.5 °C (dec.)	CCCN1CC=C(c2c[nH]c3ccc(NS(C)(=O)=O)cc23)CC1
209 °C (dec.)	CN1CCC(c2c[nH]c3ccc(NC(=O)c4ccccc4Cl)cc23)CC1.O=C(O)/C=C/C(=O)O
214 to 216 °C (dec.)	CN1CCC(c2c[nH]c3ccc(NC(=O)C(C)(C)C)cc23)CC1
178 to 179 °C	CCN1CCC(c2c[nH]c3ccc(NC(=O)c4ccco4)cc23)CC1

melting point	SMILES
103 to 104 °C	CN1CCC(c2c[nH]c3ccc(C(=O)c4ccc(N(C)C)cc4)cc23)CC1
133 °C	CN1CCC(c2c[nH]c3ccc(C(=O)c4ccc(Cl)cc4)cc23)CC1
90 °C (dec.)	COc1ccccc1C(=O)Nc1ccc2[nH]cc(C3CCN(C)CC3)c2c1.O=C(O)/C=C/C(=O)O
160 to 162 °C	COc1ccc(Sc2ccc3[nH]cc(C4CCN(C)CC4)c3c2)cc1
119.1 °C	CN1CCC(c2c[nH]c3ccc(NS(C)(=O)=O)cc23)CC1.O=C(O)C(=O)O
230 °C (dec.)	NC1CCc2[nH]c3ccc(O)cc3c2C1 (stereo not shown)
216 to 218 °C	Br.CN(C)C1CCc2[nH]c3ccc(NC(=O)C4CC4)cc3c2C1 (stereo not shown)
92 °C	Cc1ccc(C(=O)c2ccc3[nH]cc(C4CCN(C)CC4)c3c2)cc1
232 °C (dec.)	COc1ccc(C(=O)Nc2ccc3[nH]cc(C4=CCN(C)CC4)c3c2)cc1
69 °C	CN1CCC(c2c[nH]c3ccc(C(=O)Cc4ccccc4)cc23)CC1
163 °C (dec.)	CN1CCC(c2c[nH]c3ccc(NC(=O)c4ccc(Cl)cc4)cc23)CC1.O=C(O)/C=C/C(=O)O
211 to 213 °C (dec.)	CC(C)N1CC=C(c2c[nH]c3ccc(NS(C)(=O)=O)cc23)CC1
159 to 162 °C	CN1CCC(c2c[nH]c3ccc(NC(=O)c4ccc(F)cc4Cl)cc23)CC1
179 to 181 °C (dec.)	CN1CCC(c2c[nH]c3ccc(NS(=O)(=O)N(C)C)cc23)CC1
229 to 233 °C (dec.)	CN1CC=C(c2c[nH]c3ccc(NC(=O)c4cccs4)cc23)CC1
179 to 181 °C	CCN1CCC(c2c[nH]c3ccc(NS(C)(=O)=O)cc23)CC1
214 to 216 °C	Br.CN(C)C1CCc2[nH]c3ccc(NC(=O)C4CCC4)cc3c2C1 (stereo not shown)
65 °C	CC(=O)c1ccc2[nH]cc(C3CCN(C)CC3)c2c1.Cl.O (hydrate or solvate)
104 to 108 °C	CC(C)N1CCC(c2c[nH]c3ccc(NS(C)(=O)=O)cc23)CC1 (as salt: salt)

Molecular target: human 5-HT1D receptor (Homo sapiens, UniProt P28221)
Sequence (P28221 whole entry): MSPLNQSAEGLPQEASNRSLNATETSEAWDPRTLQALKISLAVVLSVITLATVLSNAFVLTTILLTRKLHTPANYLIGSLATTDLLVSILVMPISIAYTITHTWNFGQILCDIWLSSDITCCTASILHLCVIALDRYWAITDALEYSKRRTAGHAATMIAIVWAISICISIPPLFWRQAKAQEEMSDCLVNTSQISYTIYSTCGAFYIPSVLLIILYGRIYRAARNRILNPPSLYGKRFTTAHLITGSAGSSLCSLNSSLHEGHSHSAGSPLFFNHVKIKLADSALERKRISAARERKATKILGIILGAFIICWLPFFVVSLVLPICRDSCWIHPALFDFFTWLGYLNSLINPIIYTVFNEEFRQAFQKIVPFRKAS
Conditions: cited from earlier work

SMILES	affinity
CNS(=O)(=O)Cc1ccc2[nH]cc(CCN(C)C)c2c1 [Sumatriptan]	high affinity

Molecular target: T1, 5-HT1F receptor (Homo sapiens, UniProt P30939)
T1 sequence (P30939 1-366): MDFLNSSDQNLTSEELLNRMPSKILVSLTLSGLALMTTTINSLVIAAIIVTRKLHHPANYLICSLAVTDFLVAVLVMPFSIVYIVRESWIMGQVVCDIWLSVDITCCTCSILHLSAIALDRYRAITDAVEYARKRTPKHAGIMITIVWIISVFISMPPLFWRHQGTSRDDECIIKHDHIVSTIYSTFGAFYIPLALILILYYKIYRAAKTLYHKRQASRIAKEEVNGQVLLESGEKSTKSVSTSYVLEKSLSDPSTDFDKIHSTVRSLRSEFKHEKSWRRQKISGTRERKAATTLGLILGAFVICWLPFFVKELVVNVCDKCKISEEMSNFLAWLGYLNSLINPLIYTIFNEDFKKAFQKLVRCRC
Conditions: cited from earlier work

SMILES	affinity
CNS(=O)(=O)Cc1ccc2[nH]cc(CCN(C)C)c2c1 [Sumatriptan]	show affinity
NCCc1c[nH]c2ccc(C(N)=O)cc12 [5-carboxamidotryptamine]	low affinity
